Earlier results, collected in patent US6635757B1, “Process for preparing cyclodextrin inclusion complex” (Vittal Mallya Scientific Research Foundation, priority 2001, dated 2003).

C/C=C(\C)C(=O)O[C@H]1C[C@@H](OC(C)=O)[C@@]2(C(=O)OC)CO[C@H]3[C@@H](O)[C@@](C)([C@]45O[C@@]4(C)[C@@H]4C[C@H]5O[C@@H]5OC=C[C@@]54O)[C@H]4[C@]1(CO[C@]4(O)C(=O)OC)[C@@H]32 [Azadirachtin-A]
Activity compared with NSKE (containing azadirachtin-A<70%) (insects; azadirachtin-A of 99% purity): not as active as NSKE

C/C=C(\C)C(=O)O[C@H]1C[C@@H](OC(C)=O)[C@@]2(C(=O)OC)CO[C@H]3[C@@H](O)[C@@](C)([C@]45O[C@@]4(C)[C@H]4C[C@@H]5O[C@@H]5OC=C[C@@]54O)[C@H]4[C@]1(CO[C@]4(O)C(=O)OC)[C@@H]32 [Azadirachtin]
Physiological concentration required to elicit growth retardation (insects; varies from species to species): 1-100 ppm
Sensitivity to sunlight: extremely sensitive
